# Patent US5688774A (priority 1995, dated 1997)
# Read-outs that look alike come from different tables or passages of the source.
# Legend:
# rat brain A1 receptor = biological target: T1, rat brain A1 receptor (Rattus norvegicus, UniProt P25099); assay: Displacement of [^3 H]PIA binding at A1 receptors; settings: for % Inhibition (A1): at 10^-4, rat brain
# T1 construct: Rat cerebral cortical and striatal membranes were prepared; from tissue; host or cells: rat brain membranes (cerebral cortical)
# T1 sequence (P25099 1-326): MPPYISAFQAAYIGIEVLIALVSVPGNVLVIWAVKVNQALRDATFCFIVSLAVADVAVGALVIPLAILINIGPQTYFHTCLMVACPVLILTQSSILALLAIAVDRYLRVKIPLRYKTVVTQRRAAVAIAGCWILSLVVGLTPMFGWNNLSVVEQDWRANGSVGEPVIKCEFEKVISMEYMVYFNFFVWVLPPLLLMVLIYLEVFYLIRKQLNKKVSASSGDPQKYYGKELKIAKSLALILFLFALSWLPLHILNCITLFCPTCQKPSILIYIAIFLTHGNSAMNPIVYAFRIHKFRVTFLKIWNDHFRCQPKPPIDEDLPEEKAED
# rat brain A2a receptor = biological target: T2, rat brain A2a receptor (Rattus norvegicus, UniProt P30543); assay: Displacement of [^3 H]CGS 21680 binding at A2a receptors
# T2 construct: A2 receptors from rat striatal membranes; from tissue; host or cells: rat striatal membranes
# T2 sequence (P30543 whole entry): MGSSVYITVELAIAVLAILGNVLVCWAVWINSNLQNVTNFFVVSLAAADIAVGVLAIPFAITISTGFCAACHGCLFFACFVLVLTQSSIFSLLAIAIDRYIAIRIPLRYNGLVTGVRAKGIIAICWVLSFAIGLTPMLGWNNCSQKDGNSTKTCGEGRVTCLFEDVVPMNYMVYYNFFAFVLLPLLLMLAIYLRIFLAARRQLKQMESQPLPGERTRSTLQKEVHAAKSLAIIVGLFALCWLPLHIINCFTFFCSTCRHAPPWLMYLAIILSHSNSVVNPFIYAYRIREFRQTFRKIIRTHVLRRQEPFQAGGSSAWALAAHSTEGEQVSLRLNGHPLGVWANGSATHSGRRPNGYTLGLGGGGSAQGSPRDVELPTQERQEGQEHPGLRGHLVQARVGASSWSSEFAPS
# Procedure: Rat cerebral cortical and striatal membranes were prepared (Jacobson et al., J. Med. Chem., 35, 4143-4149 (1992)) and treated with ADA for 30 min at 37° C. prior to storage at -70° C.
# The stock solutions were diluted with DMSO to a concentration of ≤0.1 mM prior to addition to the aqueous medium. The final concentration of DMSO in the assay medium was generally 2%.
# At least six different concentrations spanning three orders of magnitude, adjusted appropriately for the IC50 of each compound, were used. […]. Pharmacol., 22, 3099-3108 (1973)).
# [1] = biological target: T3, rat A3 adenosine receptors (Rattus norvegicus, UniProt P28647); assay: Inhibition of adenylate cyclase in CHO cells stably transfected with rat A3 adenosine receptors; format: cell-based; parameters: key to Effect on IB-MECA dose-resp. curve: no effect; settings: for Ratio Conc./Ki (A3): test concentration divided by Ki (A3)
# T3 construct: expressed in transfected cells; host or cells: CHO cells, stably transfected
# T3 sequence (P28647 1-320): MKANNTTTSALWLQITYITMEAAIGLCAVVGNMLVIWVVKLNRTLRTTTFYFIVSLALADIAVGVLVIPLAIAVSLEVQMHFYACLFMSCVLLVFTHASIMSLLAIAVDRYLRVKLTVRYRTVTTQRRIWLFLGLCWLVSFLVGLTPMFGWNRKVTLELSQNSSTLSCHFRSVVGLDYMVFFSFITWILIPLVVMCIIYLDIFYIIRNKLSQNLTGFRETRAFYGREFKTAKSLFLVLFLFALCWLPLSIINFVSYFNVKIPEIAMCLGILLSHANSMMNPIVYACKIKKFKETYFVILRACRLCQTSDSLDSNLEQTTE
# [2] = [^3 H]PIA, rat brain membranes, Ki ± S.E.M., n = 3-6
# [3] = [^3 H]CGS 21680, rat brain membranes, Ki ± S.E.M., n = 3-6
# [4] = at 10^-4, [^3 H]CGS 21680, rat brain
# [5] = CHO, 1 μM forskolin, average ± S.E.M. for 2-3 determinations or a single value, read-out: % Inhib. (adenylate cyclase)
Compound,Ki (rat brain A1 receptor; [2]),Ki (rat brain A2a receptor; [3]),also measured
2-Chloro-9-(β-arabinosyl)adenine,24.2 ± 7.9 µM,90 ± 12.7 µM,–
9-(β-talosyl)adenine,150 ± 28 µM,54.7 ± 3.1 µM,–
"CNC(=O)[C@H]1C[C@@H](n2cnc3c(NCc4cccc(I)c4)ncnc32)[C@H](O)[C@@H]1O (relative stereo) [Compound 61, (±)-9-[2α,3β-Dihydroxy-4β-(N-Methylcarbamoyl)Cyclopent-1β-yl)]-N^6-(3-Iodobenzyl)-adenine]",–,–,% Inhibition (A2a) (rat brain A2a receptor; [4]): 28 ± 5%
"CNC(=O)[C@H]1O[C@@H](n2cnc3c(NCc4cccc(I)c4)nc(Cl)nc32)[C@H](OC(=O)c2ccccc2)[C@@H]1OC(=O)c1ccccc1 [2-Chloro-9-(2',3'-dibenzoyl-β-D-5-methyl-ribofuronamido)-N^6-(3-iodobenzyl)adenine]",–,–,% Inhibition (A1) (rat brain A1 receptor; [^3 H]PIA): 21%; % Inhibition (A2a) (rat brain A2a receptor): 7%
"CNC(=O)[C@H]1O[C@@H](n2cnc3c(NCc4cccc(I)c4)nc(Cl)nc32)[C@H](O)[C@@H]1O [2-chloro-N^6-(3-iodobenzyl)-adenosine-5'-N-methyluronamide, reference compound]",–,–,"agonist efficacy in inhibition of adenylate cyclase ([1]; in words, via rat A3 receptors): full agonist; agonist potency in inhibition of adenylate cyclase ([1]; in words, vs. other agonists): greater than that of other agonists"
"Cn1cnc2c(NCc3cccc(I)c3)ncnc21 [Compound 3, N^6-(3-Iodobenzyl)-9-Methyladenine]",5.73 ± 1.88 µM,2.23 ± 1.33 µM,–
"Cn1cnc2c(NCc3cccc(I)c3)nc(Cl)nc21 [Compound 6, 2-Chloro-N^6-(3-Iodobenzyl)-9-Methyladenine]",0.45 ± 0.11 µM,2.7 ± 0.56 µM,–
"Cn1cnc2c(NCc3cccc(I)c3)nc(N)nc21 [Compound 9, 2-Amino-N^6-(3-iodobenzyl)-9-methyladenine]",5.57 ± 1.32 µM,3.22 ± 1.52 µM,–
"Cn1cnc2c(NCc3cccc(I)c3)nc(NN)nc21 [Compound 10, 2-Hydrazido-N^6-(3-Iodobenzyl)-9-Methyladenine]",5.44 ± 0.05 µM,19.6 ± 7.8 µM,–
"CNc1nc(NCc2cccc(I)c2)c2ncn(C)c2n1 [Compound 11, N^6-(3-Iodobenzyl)-2-Methylamino-9-Methyladenine]",0.648 ± 0.102 µM,3.56 ± 0.84 µM,–
"CN(C)c1nc(NCc2cccc(I)c2)c2ncn(C)c2n1 [Compound 12, 2-Dimethylamino-N^6-(3-Iodobenzyl)-9-Methyladenine]",1.48 ± 0.12 µM,9.89 ± 3.01 µM,–
"CCCNc1nc(NCc2cccc(I)c2)c2ncn(C)c2n1 [Compound 13, N^6-(3 -Iodobenzyl)-9-Methyl-2-Propylaminoadenine]",–,–,Ki (rat brain A1 receptor): 0.33 ± 0.08 µM; Ki (rat brain A2a receptor): 1.72 ± 0.7 µM
"CCCCCCNc1nc(NCc2cccc(I)c2)c2ncn(C)c2n1 [Compound 14, 2-Hexylamino-N^6-(3-Iodobenzyl)-9-Methyladenine]",–,–,Ki (rat brain A1 receptor): 4.48 ± 0.82 µM; % Inhibition (A2a) (rat brain A2a receptor): 11 ± 4%
"COc1nc(NCc2cccc(I)c2)c2ncn(C)c2n1 [Compound 15, N^6-(3-Iodobenzyl)-2-Methoxy-9-Methyladenine]",0.5 ± 0.21 µM,1.24 ± 0.11 µM,–
"CSc1nc(NCc2cccc(I)c2)c2ncn(C)c2n1 [Compound 16, N^6-(3-Iodobenzyl)-9-Methyl-2-Methylthioadenine]",1.89 ± 0.59 µM,1.64 ± 0.39 µM,"Effect on IB-MECA dose-resp. curve ([1]; 1 μM forskolin): c; inhibition at 100 µM [1, 5]: 19.5%; Ratio Conc./Ki (A3) [1]: 330"
"Cn1cnc2c(NCc3cccc(I)c3)nc(Sc3ccncc3)nc21 [Compound 17, N^6-(3-Iodobenzyl)-9-Methyl-2-(4-Pyridylthio)adenine]",0.84 ± 0.19 µM,11.6 ± 4 µM,–
"OCCn1cnc2c(NCc3cccc(I)c3)ncnc21 [Compound 18, N^6-(3-Iodobenzyl)-9-Hydroxyethyladenine]",22.9 ± 3.7 µM,15.1 ± 1.6 µM,–

Compound,Ki (rat brain A1 receptor; [2]),Ki (rat brain A2a receptor; [3]),also measured
"OC[C@@H](O)Cn1cnc2c(NCc3cccc(I)c3)ncnc21 [Compound 19, R--N^6-(3-Iodobenzyl)-9-(2,3-Dihydroxypropyl)adenine]",13.8 ± 2.2 µM,18.9 ± 1.9 µM,–
"CSc1nc(NCc2cccc(I)c2)c2ncn(C[C@@H](O)CO)c2n1 [Compound 19b, R-N^6-(3-Iodobenzyl)-9-(2,3-dihydroxypropyl)-2-methylthioadenine]",–,–,"Effect on IB-MECA dose-resp. curve ([1]; 1 μM forskolin): c; inhibition at 40 µM ([1]; CHO, 40 μM, 1 μM forskolin, average ± S.E.M. for 2-3 determinations or a single value, read-out: % Inhib. (adenylate cyclase)): 7.4 ± 3.7%; Ratio Conc./Ki (A3) [1]: 4.6"
"OC[C@H](O)Cn1cnc2c(NCc3cccc(I)c3)ncnc21 [Compound 20, S--N^6-(3-Iodobenzyl)-9-(2,3-Dihydroxypropyl)adenine]",19.1 ± 2.2 µM,41.8 ± 12.5 µM,–
"O=C(O)Cn1cnc2c(NCc3cccc(I)c3)ncnc21 [Compound 21, N^6-(3-Iodobenzyladenin-9-yl)acetic Acid]",–,–,% Inhibition (A1) (rat brain A1 receptor; [^3 H]PIA): 17%; % Inhibition (A2a) (rat brain A2a receptor): 9%
"N#CCCCn1cnc2c(NCc3cccc(I)c3)ncnc21 [Compound 22, N^6-(3-Iodobenzyl)-9-(3-Cyanopropyl)adenine]",6.03 ± 1.37 µM,18.7 ± 5.8 µM,–
"O[C@@H]1[C@H](O)CO[C@H]1n1cnc2c(NCc3cccc(I)c3)nc(Cl)nc21 [Compound 28, 2-Chloro-9-(b-D-erythrofuranoside)-N^6-(3-iodobenzyl)adenine]",–,–,"Ki (rat brain A1 receptor): 0.811 ± 0.123 µM; Ki (rat brain A2a receptor): 2.89 ± 1 µM; inhibition at 100 µM [1, 5]: 42.2%; Ratio Conc./Ki (A3) [1]: 360"
"CNc1nc(NCc2cccc(I)c2)c2ncn([C@@H]3OC[C@@H](O)[C@H]3O)c2n1 [Compound 29, 9-(β-D-Erythrofuranoside)-2-Methylamino-N^6-(3-Iodobenzyl)adenine]",–,–,Ki (rat brain A1 receptor): 0.66 ± 0.01 µM; Ki (rat brain A2a receptor): 3.39 ± 0.29 µM
"Clc1nc(NCc2cccc(I)c2)c2ncn(C3CCCO3)c2n1 (centres unmarked) [Compound 30, 2-Chloro-N-(3-Iodobenzyl)-9-(2-Tetrahydrofuryl)-9H-Purin-6-Amine]",–,–,Ki (rat brain A1 receptor): 0.174 ± 0.017 µM; Ki (rat brain A2a receptor): 4.12 ± 0.18 µM
"CNC(=O)[C@@H]1C[C@@H](OS(C)(=O)=O)[C@H](n2cnc3c(NCc4cccc(I)c4)nc(Cl)nc32)O1 [Compound 41, 2-Chloro-9-(3-Deoxy-2-Methanesulfonyl-β-D-5-Methyl-Ribofuronamido)-N^6-(3-Iodobenzyl)adenine]",1.29 ± 0.08 µM,41.9 ± 6.2 µM,–
"CNC(=O)[C@@H]1C[C@H](N)[C@H](n2cnc3c(NCc4cccc(I)c4)nc(Cl)nc32)O1 [Compound 43, 2-Chloro-9-(2'-Amino-2',3'-dideoxy-β-D-5'-methyl-Arabinofuronamido)N^6-(3-Iodobenzyl)adenine]",6.69 ± 0.74 µM,–,% Inhibition (A2a) (rat brain A2a receptor; [4]): 2%
"CNC(=O)[C@@H]1C[C@H](F)[C@H](n2cnc3c(NCc4cccc(I)c4)nc(Cl)nc32)O1 [Compound 44, 2-Chloro-9-(2',3'-Dideoxy-2'-Fluoro-β-D-5'-Methyl-Arabinofuronamido)-N^6-(3-Iodobenzyl)adenine]",–,–,"inhibition at 100 µM [1, 5]: 11.2%; Ratio Conc./Ki (A3) [1]: 5.6"
"CNC(=O)[C@H]1O[C@@H](n2cnc3c(NCc4cccc(NC(=O)[C@@H]5CCCN5)c4)ncnc32)[C@H](O)[C@@H]1O [Compound 65, N^6-[3-(L-Prolylamino)Benzyl]Adenosine-5'-N-Methyluronamide]",–,–,Ki (rat brain A2a receptor): 0.215 ± 0.054 µM
"CNC(=O)[C@H]1O[C@@H](n2cnc3c(NCc4cccc(NC(=O)CCN)c4)ncnc32)[C@H](O)[C@@H]1O [Compound 66, N^6-[3(β-Alanylamino)Benzyl]Adenosine-5'-Methyluronamide]",–,–,Ki (rat brain A2a receptor): 0.144 ± 0.04 µM
"CNC(=O)[C@H]1O[C@@H](n2cnc3c(NCc4cccc(NC(=O)CCNC(=O)OC(C)(C)C)c4)ncnc32)[C@H](O)[C@@H]1O [Compound 67, N^6-[3-(N-6-Boc-β-Alanylamino)Benzyl]Adenosine-5'-Methyluronamide]",–,–,Ki (rat brain A2a receptor): 1.96 µM
"CNC(=O)[C@H]1O[C@@H](n2cnc3c(NNc4ccccc4)ncnc32)[C@H](O)[C@@H]1O [Compound 70, 6-(N'-phenylhydrazinyl)Purine-9-β-Ribofuranoside-5'-N-Methyluronamide]",–,–,Ki (rat brain A2a receptor): 7.16 µM
CNC(=O)[C@H]1O[C@@H](n2cnc3c(NOc4ccccc4)ncnc32)[C@H](O)[C@@H]1O [Compound 71],–,–,Ki (rat brain A2a receptor): 66.3 µM
"CNC(=O)[C@H]1O[C@@H](n2cnc3c(NCc4ccco4)ncnc32)[C@H](O)[C@@H]1O [Compound 74, 1-(6-Furfurylamino-9H-Purin-9-yl)-1-Deoxy-N-Methyl-β-D-Ribofuranosiduronamide]",8.61 ± 2.55 µM,6.22 ± 2.71 µM,–
